Measured values from patent US20260193647A1, “MIRNA-BASED CANCER THERAPY WITH A TUMOR-NAVIGATING PEPTIDE” (The Board of Trustees of the Universities of Illinois, priority 2022, published 2026).

Experiments:
[1] = tested on: SJ-GBM2-luc tumors; assay: Intracranial orthotopic SJ-GBM2-luc xenograft: bioluminescence and survival; assay type: in vivo, mice
Protocol: All animal experiments were performed in accordance with the use of animals in research and approved by IACUC. SJ-GBM2 cells stably expressing luciferase gene (pGL4.51 [luc2/CMV/Neo], Promega) were generated by a chemical transfection method (FuGENE HD, Promega) in the presence of G418 antibiotics (GoldBio). 4-5 weeks athymic mice were purchased from The Jackson Laboratory. SJ-GBM2-luc cell lines was maintained to 70% confluency and checked for their luminescence activity. Similar to the implantation method described previously, cells were resuspended in PBS at a final concentration of 10^6 cells/3 μl. Following anesthesia, a midline incision was made on the calvarium, extending from bregma to lambda sutures. At a position 2 mm posterior to bregma and 2 mm lateral to the […], a 3-mm hole was made in the skull. A 26-gauge Hamilton syringe was inserted into the hole, and 3 μl of 10^6 cells was injected slowly. The injection site was covered with sterile bone wax and sutured. As the first set of experiment, mice were randomly divided into the experimental groups and the dose finding studies were conducted with AmiR20-p28 at 0.1, and 1 mg/kg. AmiR20-p28 was administered every other day three times a week i.v. via the tail vein (200 μl/injection). As the second set of experiment, mice were randomly divided into the groups of PBS or AmiR20-p28 at 1 and 5 mg/kg (N=5). […] Mice were sacrificed based on the following humane endpoints such as >20% weight loss, the presence of labored respiration, abnormal behavior (e.g., paralysis), and loss of the ability to ambulate.
D-Luciferin potassium salt (GoldBio, #LUCK-100) at 150 mg/kg was injected intraperitoneally into the mice. Mice were anesthetized in a chamber with isoflurane/oxygen and positioned for bioluminescent imaging using a Spectral Lago X imaging system (Accela, Czech Republic). A series of images was acquired over a duration up to 30 min after the time of D-luciferin injection. Aura software (version 3.2) was used to compute regions of interest (ROIs) and integrate the total bioluminescence signal in each ROI. Data were analyzed based on radiance (photons/second/cm^2/steradian) in the ROIs. The radiance values were plotted for each animal in the experimental group to form the tumor growth curve. Overall survival was also evaluated based on their survival period (mice died due to disease or were sacrificed based on the humane endpoints criteria). For X-ray imaging, the anesthetized mice were positioned, and a Spectral Lago X imaging system was used to take images. Aura software was used to merge the images taken with X-ray and bioluminescent systems.

[2] = tested on: miR-20a; assay: miR-20a levels in resected tumor tissues of treated mice; assay type: in vivo; conditions: 1 mg/kg 3 times a week for one week; vs PBS-treated mice
Text: Micro RNA enriched fraction was extracted using the miRNeasy Mini Kit (Qiagen, Catalog #217004) following the manufacturer's instructions. Stem loop real-time qPCR was used to analyze miRNA expression. We designed miR-20a stem loop RT primers and amplification primers according to a previously described method 79. cDNA was synthesized from extracted RNA using unique stem loop RT primers. The sequence of the stem loop primer for miR-20a was 5′-[…]-3′ (SEQ ID NO:7). Reverse transcriptase reactions contained the following reagents: 10 ng of RNA sample, 60 nM stem-loop RT primer, 1×RT buffer, 0.25 mM dNTP, and 4 U/μl reverse transcriptase. Reactions were performed by incubation at 16° C. for 30 min, 42° C. for 30 min and 85° C. for 5 min. Real-time PCR (7300 Real time PCR Systems, Applied Biosystems, CA) was performed using the specific forward primer for miR-20a (5′-[…]-3′ (SEQ ID NO:8)) and a universal reverse primer (5′-GTGCA GGGTC CGAGGT-3′ (SEQ ID NO:9)). […]
A quantitative analysis using human-specific Alu sequence (hAlu) was performed on samples collected from the isolated brain tissues. […] The amount of hAlu and mGAPDH DNA in the tissue was calculated by comparison with a standard curve, and the calculated amount of hAlu DNA was normalized against the relative quantity of mGAPDH. […]

[3] = tested on: normal human astrocytes; assay: CCK-8 cell viability assay, normal human astrocytes; assay type: cell-based; conditions: 24 hr
Protocol: (§1) Cell viability was evaluated by a CCK-8 assay (Dojindo, Japan). Cells were seeded at a density of 4,000 cells per well in 100 μl of growth medium in 96-well plates and grown overnight. Then, the cells were exposed to antisense miR-20a alone, p28 alone or negative control or AmiR20-p28 over a range of concentrations and incubated for 24 hr. According to the manufacturer's instructions, 10 μl of CCK-8 solution was added to each well, followed by incubation for 1 hr at 37° C. The absorbance at 450 nm was determined by a multiplate reader.
(§2) Cell viability (%)=Abs(sample)−Abs(blank)/Abs(no treatment)−Abs(blank)×100

[4] = tested on: LN-229 cells; assay: CCK-8 cell viability assay, LN-229; assay type: cell-based, human; conditions: 24 hr
Protocol: as §1, §2

[5] = Example 6, 1 mg/kg i.v., late phase

AmiR20-p28: BBB-permeable tumor-navigating CPP p28 (Cys-p28) covalently linked to 2′ O-methyl antisense miR-20a (5′-maleimide)
tumor recurrence ([1]; 1 and 5 mg/kg, continued or stopped treatment after four weeks, additional ~two months): neither the 1 mg/kg nor the 5 mg/kg dose groups exhibited any signs of tumor recurrence | tumor growth (bioluminescence) ([1]; 1 or 5 mg/kg i.v. 3× weekly, vs PBS or 0.1 mg/kg): significant inhibition of tumor growth | overall survival rate ([1]; Example 6, 1 mg/kg i.v., early phase): 100% | tumor growth (bioluminescence) ([1]; Example 6, 1 mg/kg i.v., early phase, start 10 days after cell injection): complete repression of tumor | mice survived at day 49 [1, 5]: 80% | overall survival rate [1, 5]: 40% | tumor growth (bioluminescence) ([1]; Example 6, 1 mg/kg i.v., late phase, start 40 days after cell injection): tumor progression was observed | overall survival rate ([1]; Example 6, 1 mg/kg i.v., middle phase): 80% | tumor growth (bioluminescence) ([1]; Example 6, 1 mg/kg i.v., middle phase, start 20 days after cell injection): sustained suppression of the tumor burden | tumor growth (bioluminescence) ([1]; Example 7, 1 mg/kg i.v., early phase, 10 days after cell injection): complete repression of tumor | tumor growth (bioluminescence) ([1]; Example 7, 1 mg/kg i.v., late phase, 42 days after cell injection): tumor progression | tumor growth (bioluminescence) ([1]; Example 7, 1 mg/kg i.v., middle phase, 21 days after cell injection): sustained suppression of tumor growth | overall survival probability ([1]; Example 7, 1 mg/kg, late phase): 60% | tumor growth (bioluminescence) ([1]; Example 7, 1 mg/kg, vs PBS and 0.1 mg/kg): significant repression in tumor growth | miR-20a levels in tumor tissues [2]: significant decrease in miR-20a levels | effect on cell viability [3]: negligible | IC50 [4]: 170 nM | effect on cell viability ([4]; compared to pGBM): less extensive
